Measured values reported in US8980614B2, “Staphylococcus haemolyticus prophage φSH2 endolysin is lytic for Staphylococcus aureus” (The United States of America, as represented by The …, priority 2012, dated 2015).

B1: B1: Fusion of intact φSH2 CHAP and SH3b domains (1-166 + 341-493), SEQ ID NO:12 (protein)
chain: MKTQAEINKRLDAYRKGTVDSPYRVKVWTSYDNRFYPMEPGCIDVDKSFHAQCADLTIDYILWLTDNEFRIRGNAKDAINPKKNKLPEGWKIVLNRPSTVPRKGWIAVFTDGTYWEYGHIGMVYDGGNTSRFQILEQNWNGWANKKPSLRWDNYYGLTHFIVPPVALEVLHTGLDPLYHSITEHARLKLKDYFIKQIRAYMDGKKPTSKVVVSKPGSASTPATRKDANGYRENPHGTLYKEEHATFTANANIITRYVGPFTNMPQAGILKAGQTIIYDEVMKQDGYIWVGYTAYNGKRVYLPVRKWNRETDSVGKLWGVISLEHHHHHH
modifications: Bacteriophage Phi SH2
B2: D1: Isolated amidase domain (178-397), SEQ ID NO:20 (protein)
chain: MQAPKQKVKKASTKKALPKITKHITGYNMDKRGYNPKGVVLHNDAGGMNYKQYYNNLVNANYDRLARGIAHAYVDRTGIWEAIDESRIAWHVADGTRPGSGNHDFYGIEVNQSLRASDKEFLENEQAVFQFAAEKLKKWGLPANRNTVRLHNEFSQTSCPHRSMVLHTGLDPLYHSITEHARLKLKDYFIKQIRAYMDGKKPTSKVVVSKPGSASTPATRKLEHHHHHH
modifications: Bacteriophage Phi SH2
B3: C1: CHAP plus amidase domain, lacks SH3b (1-397), SEQ ID NO:16 (protein)
chain: MKTQAEINKRLDAYRKGTVDSPYRVKVWTSYDNRFYPMEPGCIDVDKSFHAQCADLTIDYILWLTDNEFRIRGNAKDAINPKKNKLPEGWKIVLNRPSTVPRKGWIAVFTDGTYWEYGHIGMVYDGGNTSRFQILEQNWNGWANKKPSLRWDNYYGLTHFIVPPVAKENKAVSSSKQQAPKQKVKKASTKKALPKITKHITGYNMDKRGYNPKGVVLHNDAGGMNYKQYYNNLVNANYDRLARGIAHAYVDRTGIWEAIDESRIAWHVADGTRPGSGNHDFYGIEVNQSLRASDKEFLENEQAVFQFAAEKLKKWGLPANRNTVRLHNEFSQTSCPHRSMVLHTGLDPLYHSITEHARLKLKDYFIKQIRAYMDGKKPTSKVVVSKPGSASTPATRKLEHHHHHH
modifications: Bacteriophage Phi SH2
B4: E1: Amidase plus SH3b domain (178-493), SEQ ID NO:24 (protein)
chain: MQAPKQKVKKASTKKALPKITKHITGYNMDKRGYNPKGVVLHNDAGGMNYKQYYNNLVNANYDRLARGIAHAYVDRTGIWEAIDESRIAWHVADGTRPGSGNHDFYGIEVNQSLRASDKEFLENEQAVFQFAAEKLKKWGLPANRNTVRLHNEFSQTSCPHRSMVLHTGLDPLYHSITEHARLKLKDYFIKQIRAYMDGKKPTSKVVVSKPGSASTPATRKDANGYRENPHGTLYKEEHATFTANANIITRYVGPFTNMPQAGILKAGQTIIYDEVMKQDGYIWVGYTAYNGKRVYLPVRKWNRETDSVGKLWGVISLEHHHHHH
modifications: Bacteriophage Phi SH2

How the values were obtained:
MRSA strain NRS382 = assay: Control of systemic MRSA infection in a murine model; assay type: in vivo, Balb/c mice
S. aureus Newman cells [1] = assay: Turbidity reduction assay; assay type: cell-based, Staphylococcus aureus; conditions: 1 μM protein; for lytic activity in turbidity reduction assays (in words): different NaCl concentrations; for lytic (specific) activity compared with the full length φSH2 lysin: at optimum salt concentration
Experimental: The turbidity reduction assay measures a decrease in optical density of a bacterial suspension due to lysis of the target bacteria by a lytic protein. The assays were performed in a 96-well dish format essentially as described previously (Donovan et al. 2006, supra). In order to reduce the variability of the assay, frozen stocks of S. aureus Newman substrate cells were prepared in a large batch as described by Becker et al. (2009b, supra). Immediately prior to the assay, the frozen cells were thawed, washed, and resuspended in the desired assay buffer such that when 100 μl of cell suspension were added to 100 μl of lysis buffer+/−protein, the final suspension has an OD600nm of ˜1.0.
Protein constructs were assayed at a concentration of 1 μM, and the assay was performed at room temperature, measuring the OD600nm at 1 min intervals for 45 min. Buffer without enzyme served as the control. The steepest slopes of the resulting lysis curves, which correspond to the lytic activities of the proteins, were determined by a sliding window over each group of three consecutive time points for the entire 45 min period. Specific activities were expressed as ΔOD600nm/min/μM, and the “no enzyme” control value was subtracted from each experimental value.
In order to determine the effect of salt concentration on lytic activity, turbidity reduction assays were performed in 10 mM Tris buffers at pH 7.5 with varying NaCl concentrations between 0 mM and 600 mM. Accordingly, the influence of pH was determined by using a series of different buffers with pH values ranging from 3.5 to 10.0. Citrate buffers were used for pH 3.5, 4.5, 5.5, and 6.0, MOPS buffers for pH 6.5, 7.0, and 7.5, Tris buffers for pH 8.0 and 9.0, and Carbonate/bicarbonate buffer for pH 10.0. The concentration of the buffer substance in all buffers used was 20 mM, and the NaCl concentration was 200 mM. To test the effect of bivalent metal ions, assays were performed in 10 mM Tris, 200 mM NaCl, pH 7.5 supplemented with MgCl2, MnCl2, or CaCl2 at different concentrations (0.1 mM, 1 mM, 10 mM), buffer without metal ions serving as control.

S. aureus Newman cells [2] = assay: Zymogram with S. aureus Newman cells embedded in the gel; assay type: cell-based; conditions: 5 μg protein
Experimental: All purified proteins were analyzed with 15% SDS-PAGE, using a Kaleidoscope Precision Plus Protein Standard (BioRad, Hercules, Calif.). For zymograms, a 300 mL culture volume equivalent of live mid-log phase (OD600nm=0.4-0.6) cells of S. aureus strain Newman was embedded in the gel during polymerization. The protein samples were boiled in Laemmli sample buffer (BioRad) with β-mercaptoethanol, and electrophoresed with identical buffers and voltage for one hour in both the SDS-PAGE and the zymogram using a Mini-Protean TETRA gel system (BioRad). SDS gels were Coomassie stained and zymograms were washed in excess water and further incubated in deionized water for 60 min, followed by incubation in 10 mM Tris, pH 8.0 with 150 mM or 300 mM NaCl for 80 min. Areas of clearing in the turbid zymogram gel indicate a lytic protein in the gel.

[3] = 0 hours, mice infected i.p. with MRSA NRS382, treated 30 min post infection (φSH2 200 μg/mouse i.p.; Vancomycin 375 μg/mouse s.c.; Oxacillin 1250 μg/mouse s.c.)
[4] = 4 hours, same infection and treatment
[5] = 8 hours, same infection and treatment
[6] = 12 hours, same infection and treatment
[7] = 16 hours, same infection and treatment
[8] = 20 hours, same infection and treatment
[9] = 24 hours, same infection and treatment
[10] = 28 hours, same infection and treatment
[11] = 32 hours, same infection and treatment
[12] = 36 hours, same infection and treatment
[13] = 40 hours, same infection and treatment
[14] = 44 hours, same infection and treatment
[15] = after incubation in deionized water for 60 min
[16] = water 60 min, then 10 mM Tris, 150 mM NaCl, pH 8.0 up to 80 min

Row | Molecule | % Survival (MRSA strain NRS382; [3]) | % Survival (MRSA strain NRS382; [4]) | % Survival (MRSA strain NRS382; [5]) | % Survival (MRSA strain NRS382; [6]) | % Survival (MRSA strain NRS382; [7]) | % Survival (MRSA strain NRS382; [8]) | % Survival (MRSA strain NRS382; [9]) | % Survival (MRSA strain NRS382; [10]) | % Survival (MRSA strain NRS382; [11]) | % Survival (MRSA strain NRS382; [12]) | % Survival (MRSA strain NRS382; [13]) | % Survival (MRSA strain NRS382; [14]) | lytic activity in turbidity reduction assays (in words) (S. aureus Newman cells [1]) | lysis in zymogram (S. aureus Newman cells [2]; [15]) | lysis in zymogram (S. aureus Newman cells [2]; [16]) | lytic (specific) activity compared with the full length φSH2 lysin (S. aureus Newman cells [1]) | also measured
1 | Cc1onc(-c2ccccc2)c1C(=O)N[C@@H]1C(=O)N2[C@@H]1SC(C)(C)[C@@H]2C(=O)O [Oxacillin] | 100% | 100% | 100% | 100% | 100% | 40% | 40% | 30% | 30% | 30% | 30% | 30% | – | – | – | – | survival rate (MRSA strain NRS382; after 16 to 20 hours, Oxacillin 1250 μg/mouse s.c. 30 min post infection): less than 40%
2 | CN[C@H](CC(C)C)C(=O)N[C@H]1C(=O)N[C@@H](CC(N)=O)C(=O)N[C@H]2C(=O)N[C@H]3C(=O)N[C@H](C(=O)N[C@H](C(=O)O)c4cc(O)cc(O)c4-c4cc3ccc4O)[C@H](O)c3ccc(c(Cl)c3)Oc3cc2cc(c3O[C@@H]2O[C@H](CO)[C@@H](O)[C@H](O)[C@H]2O[C@H]2C[C@](C)(N)[C@H](O)[C@H](C)O2)Oc2ccc(cc2Cl)[C@H]1O [Vancomycin] | 100% | 100% | 100% | 100% | 100% | 100% | 100% | 100% | 100% | 100% | 100% | 100% | – | – | – | – | % Survival (MRSA strain NRS382; 48 hours (end of the experiment), same infection and treatment): 100%
3 | B1 | – | – | – | – | – | – | – | – | – | – | – | – | completely abolished its activity | faint zones of lysis | considerably weaker | – | –
4 | B2 | – | – | – | – | – | – | – | – | – | – | – | – | only background levels of activity | – | – | – | lysis in zymogram (S. aureus Newman cells [2]; water 60 min, then 10 mM Tris, 300 mM NaCl, pH 8.0 for 80 min): pronounced lytic band
5 | B3 | – | – | – | – | – | – | – | – | – | – | – | – | drastically reduced activity | faint zones of lysis | considerably weaker | about half the activity | –
6 | B4 | – | – | – | – | – | – | – | – | – | – | – | – | – | – | only very faint lysis | about half the activity | –
